Here are results for 3 compounds from PMC7671475 (Journal of Inflammation Research, 2020).

Usually IC50 stands for the concentration that inhibits the measured activity by half.

The assay concerns the target Syk (spleen tyrosine kinase) (Homo sapiens, UniProt P43405). Description: ADP-Glo kinase assay with Promega Syk Kinase Enzyme System. Format: biochemical.

`CC1=CC(=O)CC(C)(C)[C@@]1(O)/C=C/[C@@H](C)O[C@@H]1O[C@H](CO)[C@@H](O)[C@H](O)[C@H]1O` [RosS, roseoside] had an IC50 of 160 nM.
`O=c1cc(-c2ccc(O)cc2)oc2c([C@@H]3O[C@H](CO)[C@@H](O)[C@H](O)[C@H]3O)c(O)c([C@@H]3O[C@H](CO)[C@@H](O)[C@H](O)[C@H]3O)c(O)c12` [Vic-2, vicenin-2] showed an IC50 of 284 nM.
Turning to `O=C(/C=C/c1ccc(O)c(O)c1)O[C@H](Cc1ccc(O)c(O)c1)C(=O)O` [RosA, rosmarinic acid], the IC50 was 114 nM.
